Literature values as cited in US10052352B2, “Therapeutic application of parenteral krill oil” (STABLE SOLUTIONS LLC, priority 2011, dated 2018).

Conditions: free acid

O=C(c1ccccc1)c1ccc2n1CCC2C(=O)O (stereo not shown) [ketorolac]
water solubility: highly water insoluble
